Reference: US20110311517A1, “Antibodies and methods for treating estrogen receptor-associated diseases” (SHENOGEN PHARMA GROUP, LTD., priority 2009, published 2011)

System: implanted tumors
Assay: Comparison of anti-tumor activity of ScFv-7 with tamoxifen on tumor-bearing nude mice
Format: in vivo, BALB/c-nu female nude mice
Details: after 18 days of drug administration
Method: BALB/c-nu female nude mice were divided into 3 groups, with 7 mice in each group.
Human anti-ERα36 ScFv-7 was administered at the dose of 0.1 mg/20 g body weight/day. The positive control tamoxifen was administered at the dose of 0.33 mg/20 g body weight/day. The negative control group was administered with human IgG.
The tumor-bearing nude mice were weighed, and the volumes of the implanted tumors were measured every 3-4 days. The relative tumor volumes and tumor growth inhibition rates were calculated using Equation 2 and Equation 4 respectively. Animals received drug administration for 18 days and were terminated 24 h later. The tumors were excised from the animals and weighed. The average tumor weights and tumor growth inhibitions were calculated using Equation 4.

CC/C(=C(\c1ccccc1)c1ccc(OCCN(C)C)cc1)c1ccccc1 [tamoxifen, reference compound]
tumor inhibition rates (ScFv-7 0.1 mg/20 g body weight/day, tamoxifen 0.33 mg/20 g body weight/day): around 60%
average tumor weights compared with negative group (p-values below 0.01): significant difference
